Laboratory results taken from paper PMC8944975, “Secretin Receptor as a Target in Gastrointestinal Cancer: Expression Analysis and Ligand Development” (Biomedicines, 2022).
Read-outs that look alike come from different tables or passages of the source. Where no end group is shown, it is not given here. [ ]: non-standard residue; d: D form.

Key:
[1] = tested on: isolated pancreatic membranes; settings: cited from earlier work
Excerpt: (§1) Early studies of secretin had shown that its biological activity resides particularly in the amino terminus. […] Despite their lack of activation, these truncated peptides were able to displace native secretin at high concentrations.

SCTR = settings: variant of rat secretin(5–27); cited from earlier work
Excerpt: as §1

[2] = tested on: pancreatic secretion of both fluid and bicarbonate; settings: cited from earlier work
Excerpt: as §1

[3] = biological target: T1, human secretin receptor (SCTR) (human, UniProt P47872 23-440); test: radioligand binding; saturation binding of I^125-secretin on U2OS-SCTR membrane isolates; total, unspecific and specific binding
T1 sequence (P47872 23-440): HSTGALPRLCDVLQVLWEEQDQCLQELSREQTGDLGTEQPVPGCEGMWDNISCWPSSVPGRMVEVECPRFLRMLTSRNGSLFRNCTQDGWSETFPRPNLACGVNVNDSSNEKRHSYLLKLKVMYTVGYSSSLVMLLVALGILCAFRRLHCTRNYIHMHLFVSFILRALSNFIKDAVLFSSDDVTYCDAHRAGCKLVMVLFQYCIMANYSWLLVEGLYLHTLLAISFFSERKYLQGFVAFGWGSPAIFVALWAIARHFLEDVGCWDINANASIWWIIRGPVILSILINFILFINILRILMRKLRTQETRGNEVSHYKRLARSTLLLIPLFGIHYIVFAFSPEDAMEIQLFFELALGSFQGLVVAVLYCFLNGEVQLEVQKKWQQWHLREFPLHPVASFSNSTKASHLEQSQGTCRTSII

human SCTR = human SCTR (Homo sapiens, UniProt P47872); test: GloSensor cAMP assay, agonist mode; format: cell-based; set-up: expressed in transfected cells; settings: GloSensor cAMP assay; at least 3 independent experiments in duplicates; read-out: cAMP Production, Intrinsic Activity
human SCTR, sequence (P47872 23-440): as above
Experimental: Analysis of downstream signaling of activated SCTR via Gαs G-protein subunits was performed by monitoring intracellular cAMP utilizing the GloSensor system (Promega, Walldorf, Germany) in accordance with the supplier protocol. Measurements were performed using the EnVision Analyzer (PerkinElmer, Rodgau, Germany). For evaluation, concentration–response curves (signal-to-noise ratios plotted) employing the derived statistical mean and SD for estimation of the respective EC50 were calculated using Spotfire Decision Site (TIBCO, Palo Alto, CA, USA). For the analysis of antagonists, a modified protocol was used. Treatment of cells and dilution of the potential antagonist was performed as previously described. Ligand dilutions were added to cells and incubated at room temperature for 5 min. Successively, secretin was added at a final concentration of 0.5 nM for an additional 15 min at room temperature. The emitted chemiluminescence, which correlates with the cAMP concentration, was detected with suitable filters. Evaluation of data was performed as previously described with a calculation of half-maximal inhibitory concentration (IC50).

[4] = in vivo; cited from earlier work
Excerpt: Due to their vulnerability towards proteolytic degradation, most peptide hormones have short half-lives of only a few minutes. […] To chemically stabilize a peptide ligand by the introduction of artificial amino acids, the amino acid positions crucial for its activity need to be identified. The experimental strategy included design and synthesis of a library of secretin variants that would contain single amino acid substitutions as well as truncations on either end. To characterize a large number of individual peptides ...

[5] = biological target: T1, human secretin receptor (SCTR)
[6] = biological target: T1, human secretin receptor (SCTR); test: cell-based or functional assay

With “Secretin(2–27): N-terminally truncated secretin variant (amino acids 2–27) of the literature (SDGTFTSELSRLREGARLQRLLQGLV; ends and bridges not checked; UniProt P09683 29-54, looked up, fragment)” as the molecule, how does the “effect on cAMP synthesis / agonistic effects, in words” value [1] read?
Its value is “severe reduction on cAMP synthesis”.

With [I17, R25]-secretin(5–27) as the molecule, how does the affinity (SCTR) read?
Its affinity is 23 nM.

Which “effect on pancreatic secretion, in words” value [2] does the source give for [(CH2NH)4,5]secretin here?
The value was “dose-dependently increased pancreatic secretion of both fluid and bicarbonate”.

For “^125I-labelled W27, Y28-secretin (peptide)”, which Kd [3] is on record?
Its Kd is 0.074 nM.

With `CC(C)C[C@H](NC(=O)CNC(=O)[C@H](CCC(N)=O)NC(=O)[C@H](CC(C)C)NC(=O)[C@H](CC(C)C)NC(=O)[C@H](CCCNC(=N)N)NC(=O)[C@H](CCC(N)=O)NC(=O)[C@H](CC(C)C)NC(=O)[C@H](CCCNC(=N)N)NC(=O)[C@H](C)NC(=O)CNC(=O)[C@H](CCC(=O)O)NC(=O)[C@H](CCCNC(=N)N)NC(=O)[C@H](CC(C)C)NC(=O)[C@H](CCCNC(=N)N)NC(=O)[C@H](CO)NC(=O)[C@H](CC(C)C)NC(=O)[C@H](CCC(=O)O)NC(=O)[C@H](CO)NC(=O)[C@@H](NC(=O)[C@H](Cc1ccccc1)NC(=O)[C@@H](NC(=O)CNC(=O)[C@H](CC(=O)O)NC(=O)[C@H](CO)NC(=O)[C@@H](N)Cc1c[nH]cn1)[C@@H](C)O)[C@@H](C)O)C(=O)N[C@H](C(N)=O)C(C)C` [Peptide 1, reference compound] as the molecule, how does the Emax (human SCTR) read?
Its Emax is 100%.

And the half-life [4]?
Its half-life is 2.5 to 4 min.

Which results are given for TSELSRLREGARLQRLLQGLV [peptide 120, secretin(7–27)]?
cAMP production (GloSensor), agonist mode: EC50 [5]: 3370 nM; cAMP production (GloSensor), agonist mode: intrinsic activity [% of secretin] [5]: 90.6%

For [dR]FTSELSRLREGARLQRLLAGLV (ends and bridges not checked) [peptide 143], which “cAMP production (GloSensor), agonist mode: intrinsic activity [% of secretin]” value [6] is on record?
Its value is 27.5%.

Which “cAMP production (GloSensor), agonist mode: intrinsic activity [% of secretin]” value [6] does the source give for [dR]FTSELSRLREGARLQRLLQALV (ends and bridges not checked) [peptide 144] here?
The value was 31.1%.
